Measurements reported in BindingDB's records for patent US11584735 (Kalvista Pharmaceuticals, 2023).
pIC50: −log10 of the molar value.

Target: Serine protease 1 (Homo sapiens, UniProt P07477)
Assay: Enzymatic Activity Assay
Experimental: Human serine protease enzymes plasmin, thrombin and trypsin were assayed for enzymatic activity using an appropriate fluorogenic substrate. Protease activity was measured by monitoring the accumulation of liberated fluorescence from the substrate over 5 minutes. The linear rate of fluorescence increase per minute was expressed as percentage (%) activity. The Km for the cleavage of each substrate was determined by standard transformation of the Michaelis-Menten equation.

Sequence of Serine protease 1 (P07477 whole entry): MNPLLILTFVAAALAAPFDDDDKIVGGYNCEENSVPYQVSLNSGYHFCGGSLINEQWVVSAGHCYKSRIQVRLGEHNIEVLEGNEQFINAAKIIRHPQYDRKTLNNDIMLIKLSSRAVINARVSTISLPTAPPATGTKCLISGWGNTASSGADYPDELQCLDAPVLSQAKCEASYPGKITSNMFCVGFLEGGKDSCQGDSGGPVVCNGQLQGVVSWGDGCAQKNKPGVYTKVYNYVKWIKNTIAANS

pIC50: < 4.40
Compound: COCc1nn(Cc2ccc(Cn3cc(F)ccc3=O)cc2)cc1C(=O)NCc1nccc(OC)c1F [US11584735, Compound of Formula A]
